Paper PMC9800617, “Pharmacokinetics/pharmacodynamics of polymyxin B in patients with bloodstream infection caused by carbapenem-resistant Klebsiella pneumoniae” (Frontiers in Pharmacology, 2022)
Converted amounts (≈) assume the structure as drawn. Like-named read-outs stand apart in the source and are kept apart here.

Assays:
[1] = system: carbapenem-resistant K. pneumoniae; settings: retrospective, 2021, cited from earlier work
Source text: In the present study, microbiological eradication was achieved by the third day of treatment in all eight patients assessed and blood culture remained negative until they had completed the study or withdrew. Clinical improvement occurred in 6 of 8 (75%) of th ...

[2] = system: A. baumannii; settings: cited from earlier work
Description: (§1) Monte Carlo simulations were conducted for the probability of target attainment (PTA) analysis to guide the selection of optimal dosage regimens. Different dosage regimens were simulated by the PPK model and AUCss,24h were calculated. […] The maximal reductions in colony f ... || FIGURE 4 Probability of target attainment for different dosage regimens of polymyxin B against common carbapenem-resistant organisms according to PK/PD simulations. (A) Loading dose for three bacterial species. […] In preclinical studies, the fAUC/MIC required for various magnitudes of bacterial killing varied among bacterial strains and infection sites. […] Against P. aeruginosa and A. b ... || (+ 2 further places)

[3] = system: P. aeruginosa; settings: cited from earlier work
Description: as §1

[4] = system: carbapenem-resistant K. pneumoniae (CRKP) strains; assay: Broth microdilution MIC (EUCAST); format: cell-based; settings: Klebsiella pneumoniae
Description: The minimum inhibitory concentrations (MICs) to polymyxin B and meropenem of the collected CRKP strains were determined by broth microdilution according to the European Committee on Antimicrobial Susceptibility Testing (EUCAST) guidelines and interpreted according to EUCAST breakpoints of colistin (Breakpoint tables for interpretation of MICs and zone diameters, Version 11.0); Escherichia coli ATCC 25922 was used as the control strain. Polymerase chain reaction (PCR) was employed to determine the presence of resistance genes (KPC, NDM, IMP, OXA, VIM). The primers were the same as in a published protocol and the sample process procedures were adapted a little bit ([Poirel et al., 2011]). To be brief, a single colony of the bacteria were picked and resuspended in ultra-pure water, and total DNA was extracted by heating bacterial suspension at 100°C for 10 min to lysis and release DNA. The suspension was centrifuged for total DNA which was dissolved in supernatant. Then 2 µl total DNA, 1 µl forward and 1 µl reverse primers (10 µM) for each targeted gene, 12.5 µl 2 × Hieff® Robust PCR Master Mix (Yeasen, Shanghai, China) and ultra-pure water were mixed into a 25 µl reaction mixture. […] Finally amplified DNA fragments were analyzed by electrophoresis in a 1% agarose gel. […]

NCC[C@H](O)C(=O)N[C@@H]1C[C@H](N)[C@@H](O[C@H]2O[C@H](CN)[C@@H](O)[C@H](O)[C@H]2O)[C@H](O)[C@H]1O[C@H]1O[C@H](CO)[C@@H](O)[C@H](N)[C@H]1O [amikacin]
30-day mortality ([1]; amikacin and its combinations for CRKP infection, ref Rodrigues et al.): 34.5%

ceftazidime-avibactam
30-day mortality ([1]; CRKP BSI, alone or combined with other antibiotics, ref Tumbarello et al.): around 25%

colistin
fAUC24h/MIC target ([2]; 2-log10 reduction against A. baumannii, murine thigh infection, ref Cheah et al., 2015): 17.6 | fAUC/MIC target ([2]; 2 log10 kill, mouse thigh infection, A. baumannii, ref Dudhani et al., 2010a, 2010b): ~17 | fAUC24h/MIC target ([3]; 2-log10 reduction against P. aeruginosa, murine thigh infection, ref Cheah et al., 2015): 13.5 | fAUC/MIC target ([3]; 2 log10 kill, mouse thigh infection, P. aeruginosa, ref Dudhani et al., 2010a, 2010b): ~17

C[C@@H](O)[C@H]1C(=O)N2C(C(=O)O)=C(S[C@@H]3CN[C@H](C(=O)N(C)C)C3)[C@H](C)[C@H]12 [meropenem]
MIC ([4]; 9 strains (all except strain No. 2–2), read-out: meropenem MIC): > 64 µg/mL | MIC ([4]; strain No. 2–2, read-out: meropenem MIC): 4 µg/mL (≈ 10.4 µM)
